# Read-outs that look alike come from different tables or passages of the source. Marks after values point to notes of the source that are not given here.
# Experiments:
# [1] = Competitive slurry experiments between polymorph forms (thermodynamic stability); format: physicochemical; conditions: competitive slurry of mixed forms
# Procedure: In order to find out the thermodynamic stability between the different forms, several competitive slurry experiments were carried out. Form 1, Form 2, Form 2*, Form 3, Form 4, Form 4*, Form 4**, Form 5, Form 7, Form 8, Form 9, Form 10, Form 11, Form 11*, and Form 13 (10 mg for each) was mixed and slurried in 2 mL of solvent at both RT and 50° C. The solids were slurried for 3-5 days and then analyzed by XRD.
# In order to find out the thermodynamic stability between Form 13 and Form 9, several competitive slurry experiments were carried out. 15 mg of Form 1, Form 9 and Form 13 solid were mixed in 1 mL of toluene, IPAc, and n-butyl acetate, and slurried for 3 days at RT and 50° C.
# The residual solid was analyzed by XRD.
# Human MSCs = experiment: Chondrogenesis induction, Rhodamine B and Nile Red staining; format: cell-based
# Procedure: Human MSCs were plated in 96-well plates in chondrogenic induction medium (Lonza; DMEM, dexamethasone, ascorbate, insulin-transferrin-selenium [ITS supplement], gentamycin-amphotericin [GA-1000], sodium pyruvate, proline and L-glutamine) and treated with the compound of Formula (I) in DMSO or TGFβ3 (20 μg/mL) as a positive control. Cells were incubated at 37° C., 5% CO2 for either 7 or 21 days, with media changes every 5 days. The cells were fixed using 4% formaldehyde (Electron Microscopy Sciences), and stained with 2 μg/mL Rhodamine B (Sigma-Aldrich) and 20 μM Nile Red (Sigma-Aldrich) (Johnson et al. (2012) Science 336(6082):717-721). The nodules were imaged (25 images per well for 96 well plates at 10× magnification) by excitation at 531 nm and emission at 625 nm and quantified using the Celllnsight CX5 (Thermo Scientific). The number of nodules in each well was normalized to the average of 6 DMSO treated wells on the same plate using Excel (Microsoft Inc.). The normalized averages (fold change over DMSO) of 6 replicate wells for each compound concentration were calculated.
# [2] = Dog pharmacokinetics after IA injection (plasma, cartilage, bone, synovial fluid); format: in vivo, beagle dogs; conditions: for % Recovered / Compound of Formula (I) Concentration, Bone / Compound of Formula (I) Concentration, Cartilage / Total Amount Recovered / concentration at 45 day / concentration at 91 day / concentration at 179 day: dogs, IA suspension
# Procedure: In rats and dogs, the pharmacokinetic profile, safety profile, tissue distribution and cartilage regeneration following a single intra-articular (IA) injection of the compound of Formula (I) in the plasma and the knee joint (cartilage and bone) was determined. The compound of Formula (I) (Form 1) was formulated as a suspension composition in 0.5% CMC/0.05% Polysorbate 80 in PBS.
# A 350 μL suspension of the compound of Formula (I) (Form 1), formulated as described above, and corresponding to 3 and 30 μg/knee, was injected intra-articularly (IA) into the right and left knees of twelve (12) naïve male beagle dogs. On Day 1, blood was collected at 15 minutes immediately after IA injection and on Days 45, 91 and 179, dogs were sacrificed and blood samples and the knee joints were collected. Plasma and tissue concentrations (bone, cartilage and synovial fluid) were determined using the HPLC-MS/MS bioanalytical method with a dynamic range of […] in plasma or 5.00 to […] in tissue.
# [3] = dog, up to 30 μg/knee, 179 days
smiles,measurement,setting,value
CC(C)CC(=O)Nc1cncc(-c2ccc3[nH]nc(-c4nc5c(-c6cccc(F)c6)cncc5[nH]4)c3c2)c1 [compound of Formula (I)],Form after 3 days; dry,"[1]; Acetone, 50° C.",Form 2*/Form 2*
same,Form after 3 days; wet,"[1]; Acetone, 50° C.",Form 2*/Form 2*
same,Form after 5 days; dry,"[1]; Acetone, 50° C.",Form 2*/Form 2*
same,Form after 5 days; wet,"[1]; Acetone, 50° C.",Form 2*/Form 2*
same,Form after 3 days; dry,"[1]; Acetone, RT",Form 2*/Form 2*
same,Form after 3 days; wet,"[1]; Acetone, RT",Form 2*/Form 2*
same,Form after 5 days; dry,"[1]; Acetone, RT",Form 2*/Form 2*
same,Form after 5 days; wet,"[1]; Acetone, RT",Form 2*/Form 2*
same,Form after 3 days; dry,"[1]; EA, 50° C.",Form 4/Form 4
same,Form after 3 days; wet,"[1]; EA, 50° C.",Form 4/Form 4
same,Form after 5 days; dry,"[1]; EA, 50° C.",Form 4*/Form 4*
same,Form after 5 days; wet,"[1]; EA, 50° C.",Form 4*/Form 4*
same,Form after 3 days; dry,"[1]; EA, RT",Form 4/Form 4
same,Form after 3 days; wet,"[1]; EA, RT",Form 4/Form 4
same,Form after 5 days; dry,"[1]; EA, RT",Form 4/Form 4
same,Form after 5 days; wet,"[1]; EA, RT",Form 4/Form 4
same,Form after 3 days; dry,"[1]; EtOH, 50° C.",Form 2*/Form 2*
same,Form after 3 days; wet,"[1]; EtOH, 50° C.",Form 2*/Form 2*
same,Form after 5 days; dry,"[1]; EtOH, 50° C.",Form 2*/Form 2*
same,Form after 5 days; wet,"[1]; EtOH, 50° C.",Form 2*/Form 2*
same,Form after 3 days; dry,"[1]; EtOH, RT",Form 2*/Form 2*
same,Form after 3 days; wet,"[1]; EtOH, RT",Form 2*/Form 2*
same,Form after 5 days; dry,"[1]; EtOH, RT",Form 2*/Form 2*
same,Form after 5 days; wet,"[1]; EtOH, RT",Form 2*/Form 2*
same,Form after 3 days; dry,"[1]; MeOH, 50° C.",Form 2*/Form 2*
same,Form after 3 days; wet,"[1]; MeOH, 50° C.",Form 2*/Form 2*
same,Form after 5 days; dry,"[1]; MeOH, 50° C.",Form 2*/Form 2*
same,Form after 5 days; wet,"[1]; MeOH, 50° C.",Form 2*/Form 2*
same,Form after 3 days; dry,"[1]; MeOH, RT",Form 2*/Form 2*
same,Form after 3 days; wet,"[1]; MeOH, RT",Form 2*/Form 2*
same,Form after 5 days; dry,"[1]; MeOH, RT",Form 2*/Form 2*
same,Form after 5 days; wet,"[1]; MeOH, RT",Form 2*/Form 2*
same,Form after 3 days; dry,"[1]; water, 50° C.",Form 13/Form 13
same,Form after 3 days; wet,"[1]; water, 50° C.",Form 13/Form 13
same,Form after 5 days; dry,"[1]; water, 50° C.",Form 13/Form 13
same,Form after 5 days; wet,"[1]; water, 50° C.",Form 13/Form 13
same,Form after 3 days; dry,"[1]; water, RT",Form 13/Form 13
same,Form after 3 days; wet,"[1]; water, RT",Form 13/Form 13
same,Form after 5 days; dry,"[1]; water, RT",Form l & Form 13
same,Form after 5 days; wet,"[1]; water, RT",Form 13
same,chondrocyte colonies/well,"Human MSCs; 1.88 nM to 30 nM, FIG. 17",dose-dependent chondrogenesis
same,chondrogenesis (Nile Red and Rhodamine B staining),"Human MSCs; human MSCs, 7 or 21 days, fold change over DMSO, FIGS. 16A, 16B",dose dependent increase in chondrogenesis
same,% of administered dose recovered,"[2]; dog, 3 μg/knee, Day 45",5.1%
same,total amount recovered from cartilage and bone tissues from the tibia,"[2]; dog, 3 μg/knee, Day 45",152 ng
same,% of administered dose recovered,"[2]; dog, 3 μg/knee, Day 91",0.55%
same,total amount recovered from cartilage and bone tissues from the tibia,"[2]; dog, 3 μg/knee, Day 91",16.6 ng
same,% of administered dose recovered,"[2]; dog, 3 μg/knee, Day 179",2.5%
same,total amount recovered from cartilage and bone tissues from the tibia,"[2]; dog, 3 μg/knee, Day 179",79 ng
same,% of administered dose recovered,"[2]; dog, 30 μg/knee, Day 45",16.8%
same,total amount recovered from cartilage and bone tissues from the tibia,"[2]; dog, 30 μg/knee, Day 45",5060 ng
same,% of administered dose recovered,"[2]; dog, 30 μg/knee, Day 91",7.25%
same,total amount recovered from cartilage and bone tissues from the tibia,"[2]; dog, 30 μg/knee, Day 91",2250 ng
same,% of administered dose recovered,"[2]; dog, 30 μg/knee, Day 179",7.03%
same,total amount recovered from cartilage and bone tissues from the tibia,"[2]; dog, 30 μg/knee, Day 179",2110 ng
same,systemic exposure,"[2]; dog, up to 30 μg/knee, 15 minutes post-dose",no measurable systemic exposure
same,adverse effects from intra-articular administration,[2]; [3],no adverse effects
same,mortality,[2]; [3],no mortality
same,% Recovered,"[2]; 3 μg/knee, Day 45",5.1%
same,"Compound of Formula (I) Concentration, Bone","[2]; 3 μg/knee, Day 45",[22] nM
same,"Compound of Formula (I) Concentration, Cartilage","[2]; 3 μg/knee, Day 45",[301] nM
same,Total Amount Recovered,"[2]; 3 μg/knee, Day 45",152 ng
same,% Recovered,"[2]; 3 μg/knee, Day 91",0.55%
same,"Compound of Formula (I) Concentration, Bone","[2]; 3 μg/knee, Day 91",BQL
same,"Compound of Formula (I) Concentration, Cartilage","[2]; 3 μg/knee, Day 91",[73] nM
same,Total Amount Recovered,"[2]; 3 μg/knee, Day 91",16.6 ng
same,% Recovered,"[2]; 3 μg/knee, Day 179",2.6%
same,"Compound of Formula (I) Concentration, Bone","[2]; 3 μg/knee, Day 179",12.8 ng/g and [25] nM
same,"Compound of Formula (I) Concentration, Cartilage","[2]; 3 μg/knee, Day 179",63.7 ng/g and [126] nM
same,Total Amount Recovered,"[2]; 3 μg/knee, Day 179",79.0 ng
same,% Recovered,"[2]; 30 μg/knee, Day 45",16.9%
same,"Compound of Formula (I) Concentration, Bone","[2]; 30 μg/knee, Day 45",[1160] nM
same,"Compound of Formula (I) Concentration, Cartilage","[2]; 30 μg/knee, Day 45",[8960] nM
same,Total Amount Recovered,"[2]; 30 μg/knee, Day 45",5057 ng
same,% Recovered,"[2]; 30 μg/knee, Day 91",7.4%
same,"Compound of Formula (I) Concentration, Bone","[2]; 30 μg/knee, Day 91",[234] nM
same,"Compound of Formula (I) Concentration, Cartilage","[2]; 30 μg/knee, Day 91",[4609] nM
same,Total Amount Recovered,"[2]; 30 μg/knee, Day 91",2175 ng
same,% Recovered,"[2]; 30 μg/knee, Day 179",7.0%
same,"Compound of Formula (I) Concentration, Bone","[2]; 30 μg/knee, Day 179",[2289] nM
same,"Compound of Formula (I) Concentration, Cartilage","[2]; 30 μg/knee, Day 179",[228] nM
same,Total Amount Recovered,"[2]; 30 μg/knee, Day 179",2109 ng
same,concentration at 45 day,"[2]; male, beagle, dog, bone, other: intra-articular, 3 μg/knee, Day 45, read-out: Compound of Formula (I) Concentration, Bone",11.2 ng/g
same,concentration at 45 day,"[2]; male, beagle, dog, bone, other: intra-articular, 30 μg/knee, Day 45, read-out: Compound of Formula (I) Concentration, Bone",586 ng/g
same,concentration at 91 day,"[2]; male, beagle, dog, bone, other: intra-articular, 30 μg/knee, Day 91, read-out: Compound of Formula (I) Concentration, Bone",118 ng/g
same,concentration at 179 day,"[2]; male, beagle, dog, bone, other: intra-articular, 30 μg/knee, Day 179, read-out: Compound of Formula (I) Concentration, Bone",1160 ng/g
same,concentration at 45 day,"[2]; male, beagle, dog, cartilage, other: intra-articular, 3 μg/knee, Day 45, read-out: Compound of Formula (I) Concentration, Cartilage",152 ng/g
same,concentration at 91 day,"[2]; male, beagle, dog, cartilage, other: intra-articular, 3 μg/knee, Day 91, read-out: Compound of Formula (I) Concentration, Cartilage",37 ng/g
same,concentration at 45 day,"[2]; male, beagle, dog, cartilage, other: intra-articular, 30 μg/knee, Day 45, read-out: Compound of Formula (I) Concentration, Cartilage",4520 ng/g
same,concentration at 91 day,"[2]; male, beagle, dog, cartilage, other: intra-articular, 30 μg/knee, Day 91, read-out: Compound of Formula (I) Concentration, Cartilage",2330 ng/g
same,concentration at 179 day,"[2]; male, beagle, dog, cartilage, other: intra-articular, 30 μg/knee, Day 179, read-out: Compound of Formula (I) Concentration, Cartilage",115 ng/g
same,concentration at 15 min,"[2]; male, beagle, plasma, other: intra-articular, dog, 15 min post-dose, 3 or 30 μg/knee, BQL",< 2000 ng/mL

# From US10882860B2, “Treatment of osteoarthritis” (Samumed, LLC, priority 2015, dated 2021)
